Values joined by “and” are separate entries in the source; they are usually repeats but may differ in a detail not shown here. Identical values can stand only once.
Biological target: T1, PRMT7 (Homo sapiens, UniProt Q9NVM4)
T1 construct: host or cells: HEK293
T1 sequence (Q9NVM4 1-692): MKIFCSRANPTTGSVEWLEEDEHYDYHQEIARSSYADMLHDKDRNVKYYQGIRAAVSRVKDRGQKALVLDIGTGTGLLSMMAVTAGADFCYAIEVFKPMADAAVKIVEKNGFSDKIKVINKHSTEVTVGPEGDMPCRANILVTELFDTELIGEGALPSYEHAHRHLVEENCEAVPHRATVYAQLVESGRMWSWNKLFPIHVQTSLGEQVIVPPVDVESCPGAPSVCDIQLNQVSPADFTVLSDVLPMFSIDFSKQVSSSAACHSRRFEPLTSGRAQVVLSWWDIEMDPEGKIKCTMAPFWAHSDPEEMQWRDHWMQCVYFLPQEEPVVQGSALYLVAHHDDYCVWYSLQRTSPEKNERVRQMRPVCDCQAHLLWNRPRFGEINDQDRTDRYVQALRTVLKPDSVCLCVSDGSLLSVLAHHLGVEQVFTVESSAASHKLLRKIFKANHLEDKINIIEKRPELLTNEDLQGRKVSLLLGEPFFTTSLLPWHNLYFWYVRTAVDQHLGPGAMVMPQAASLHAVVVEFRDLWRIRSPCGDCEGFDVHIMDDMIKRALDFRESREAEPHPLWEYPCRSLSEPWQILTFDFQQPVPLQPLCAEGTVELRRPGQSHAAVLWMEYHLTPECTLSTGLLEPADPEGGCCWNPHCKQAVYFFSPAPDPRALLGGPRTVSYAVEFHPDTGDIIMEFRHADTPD
Test: CBH-002 affinity curve, HEK293, PRMT7-NL fusion
Assay type: cell-based
Parameters: BRET, CBH-002 + DMSO / BRET, CBH-002 + GSK3326595: unit not given here
Conditions: for BRET, CBH-002 + DMSO / BRET, CBH-002 + GSK3326595: Figure S2C PRMT7-NL, log([CBH-002])
Experimental: HEK293 cells (ATCC) were cultured in DMEM (Thermo Fisher) + 10% (v/v) FBS (Seredigm), and HCT116 cells (Horizon Discovery, #PAR-034 and #R02-033) were cultured in McCoy’s 5A (Thermo Fisher) + 10% FBS, with incubation in a humidified, 37 °C/5% CO2 incubator. Cells were split 1–3 days prior to performing experiments and used at roughly 80% confluency. […] Cells were transfected according to the manufacturer’s protocol using FuGENE HD (Promega). NanoLuc fusion DNA was diluted into Transfection Carrier DNA (Promega) in Opti-MEM at a ratio of 1:9 (mass/mass), and FuGENE HD was added at a ratio of 1:3 (μg DNA:μL lipid). For experiments using WDR77, untagged WDR77 DNA (Promega) was used in place of Carrier DNA. Formed complexes were combined with cells resuspended to a density of 2 × 10^5 cells/mL in Opti-MEM + 1% FBS at a ratio of 1:20 (vol:vol). Cells were plated into a flask and incubated at 37 °C in a humidified 5% CO2 atmosphere for 18–24 h, before being lifted and seeded into 96-well non-binding surface-treated plates (Corning). Cells were seeded at a density of 2 × 10^5 cells/mL in Opti-MEM + 1% FBS in 100 μL (96-well). The BRET probe CBH-002 was prepared first as a 100× stock in 100% DMSO (Sigma) and then diluted to a 20× stock in NanoBRET Tracer Dilution buffer (Promega). Test compounds were prepared as 1000× stocks in 100% DMSO and diluted to 10× stocks in Opti-MEM to prepare working stocks. […] NanoBRET Complete 3x Substrate was prepared by combining Nano-Glo Substrate and Extracellular NanoLuc Inhibitor in Opti-MEM, according to the manufacturer’s protocol (Promega). NanoBRET Complete 3× Substrate was added to cells and plates were measured on either a PheraSTAR FSX equipped with 450 nm (donor) and 610 nm (acceptor) filters, or a GloMAX Discover equipped with 450/8 nm BP (donor) and 600 nm LP (acceptor) filters, using a 0.3 s integration time.
EC50 values were obtained by fitting the BRET probe and compound affinity curves to a sigmoidal four-parameter fit model in Graphpad Prism:1 Y=Ymin+Ymax−Ymin/1+10^LogEC50−Xh where h is the Hill Slope.

- BRET, CBH-002 + DMSO (uM 0.04576): 3.118 and 3.169 and 3.222
- BRET, CBH-002 + GSK3326595 (uM 0.04576): 2.264 and 3.024 and 2.623
- BRET, CBH-002 + DMSO (uM 0.52288): 4.4157 and 4.315 and 4.82
- BRET, CBH-002 + GSK3326595 (uM 0.52288): 4.289 and 4.449 and 4.432
- BRET, CBH-002 + DMSO (uM 1): 6.788 and 6.4376 and 8.0011
- BRET, CBH-002 + GSK3326595 (uM 1): 6.64 and 6.225 and 5.521
- BRET, CBH-002 + DMSO (uM -0.43136): 2.545 and 2.3934 and 2.684
- BRET, CBH-002 + GSK3326595 (uM -0.43136): 2.418 and 2.903 and 2.394
- BRET, CBH-002 + DMSO (uM -0.90849): 2.174 and 2.245 and 2.2
- BRET, CBH-002 + GSK3326595 (uM -0.90849): 2.014 and 2.113 and 2.172
- BRET, CBH-002 + DMSO (uM -1.20952): 2.33 and 1.992 and 2.793
- BRET, CBH-002 + GSK3326595 (uM -1.20952): 1.945 and 2.184 and 2.019
- BRET, CBH-002 + DMSO (uM -1.68664): 2.292 and 2.046 and 2.033
- BRET, CBH-002 + GSK3326595 (uM -1.68664): 2.038 and 1.973 and 2.006
- BRET, CBH-002 + DMSO (uM -1.98767): 1.964 and 2.061 and 2.054
- BRET, CBH-002 + GSK3326595 (uM -1.98767): 1.921 and 2.272 and 1.954
- BRET, CBH-002 + DMSO (uM -2.46479): 2.032 and 2.041 and 2.0419
- BRET, CBH-002 + GSK3326595 (uM -2.46479): 2.119 and 2.05 and 2.0804
- BRET, CBH-002 + DMSO (uM -2.94191): 1.985 and 2.058 and 2.072
- BRET, CBH-002 + GSK3326595 (uM -2.94191): 1.954 and 1.961 and 1.971
- CBH-002 engagement at PRMT7 (HEK293, PRMT7-NL): did not show engagement
SMILES: O=C(CCc1ccc2n1[B-](F)(F)[N+]1=C(c3ccc[nH]3)C=CC1=C2)NCCCCC(=O)N1CCC(Nc2cc(C(=O)NC[C@H](O)CN3CCc4ccccc4C3)ncn2)CC1 [CBH-002]

From publication PMC12675575, “A BRET biosensor for measuring uncompetitive engagement of PRMT5 complexes in cells” (Nature Communications, 2025)
